Test results: patent US20130071936A1, “FRET-BASED ZINC(II) ION INDICATOR” (The Florida State University Research Foundation, Inc., priority 2011, published 2013)
“And” between values parts separate entries of the source, which are not always exact repeats. Identical values can stand only once. Marks after values point to notes of the source that are not given here.

How the values were obtained:
[1] = Spectroscopic data (absorption, emission, fluorescence quantum yield) in CH3CN; type: physicochemical
Method: Reagents and solvents were purchased from various commercial sources and used without further purification unless otherwise stated. CH3CN (OmniSolv, EMD) were directly used in titration experiments without purification. All reactions were carried out in oven- or flame-dried glassware. Analytical thin-layer chromatography (TLC) was performed using pre-coated TLC plates with silica gel 60 F254 (EMD) or with aluminum oxide 60 F254 neutral (EMD). Flash column chromatography was performed using 40-63 μm (230-400 mesh ASTM) silica gel (EMD) or alumina (80-200 mesh, pH 9-10, EMD) as the stationary phases. Silica and alumina gel was flame-dried under vacuum to remove absorbed moisture before use. ^1H NMR spectra were recorded at 300 MHz on a Varian Mercury spectrometer. ^13C NMR spectra were recorded at 125 MHz, on a Bruker Avance spectrometer. All chemical shifts were reported in δ units relative to tetramethylsilane. High resolution mass spectra were obtained at the Mass Spectrometry Laboratory at Florida State University. ESI spectra were obtained on a JEOL AccuTOF spectrometer. Spectrophotometric and fluorometric titrations were conducted on a Varian Cary 100 Bio UV-Visible Spectrophotometer and a Varian Cary Eclipse Fluorescence Spectrophotometer, respectively, with a 1-cm standard quartz cell. The fluorescence quantum yield was determined by comparison of the integrated area of corrected emission spectrum with reference of N,N′-di-n-octyl-2,6-di-n-octylamino-1,4,5,8-naphthalenetetracarboxylic acid diimide (φf=0.53 in CH2Cl2) as the reference by the literature method. See Thalacker, C.; Röger, C.; Würthner, F. J. Org.

[2] = test system: mitochondria of HeLa (S3) cells transfected with mCerulean3 TOMM-20; test: Colocalization by confocal fluorescence microscopy with mCerulean3 TOMM-20; type: cell-based
Method: FIGS. 13A through 13F are confocal fluorescence images of living HeLa (S3) cells transfected with mCerulean3 TOMM-20 that were incubated with zinc(II) ion indicator (5) (1.8 μM, A-C) and zinc(II) ion indicator (4) (6.0 μM, D-F) for 30 min. FIGS. 13A (zinc(II) ion indicator (5)) and 13D (zinc(II) ion indicator (4)) depict the green channel, λex 405 nm, λem 425-475 nm. FIGS. 13B (zinc(II) ion indicator (5)) and 13E (zinc(II) ion indicator (4)) depict the red channel, λex 543 nm, λem 580-680 nm. FIGS. 13C (zinc(II) ion indicator (5)) and 13F (zinc(II) ion indicator (4)) depict the merged image. Scale bar: 10 μm.
FIGS. 14A through 14F are confocal fluorescence images of live HeLa (S3) cells transfected with mCer3 TOMM20 that were incubated with FRET acceptor compound (3) (9.0 μM, A-C) and FRET acceptor compound (2) (52 μM, D-F) for 30 min. FIGS. 14A (FRET acceptor compound (3)) and 14D (FRET acceptor compound (2)) depict the green channel, λex 405 nm, λem 425-475 nm. FIGS. 14B (FRET acceptor compound (3)) and […] (FRET acceptor compound (2)) depict the red channel, λex 543 nm, λem 580-680 nm. FIGS. 14C (FRET acceptor compound (3)) and […] (FRET acceptor compound (2)) depict the merged image. Scale bar: 10 μm.
The colocalization properties of red-emitting compounds (2-5) were studied using HeLa (S3) cells transfected with mCerulean3 TOMM-20, a cyan fluorescent protein (CFP) fused with a mitochondrial targeting sequence whose emission is shown in the green channel. See FIG. 13A for emission spectrum from cells incubated with TPP-containing zinc(II) ion indicator (5), and see FIG. 13D for emission spectrum from cells incubated with zinc(II) ion indicator (4). […] The overall intracellular fluorescence intensity from zinc(II) ion indicator (4) is low, which is consistent with the observed weak fluorescence of the NDI fluorophore in aqueous solutions.
The localization properties of (2-5) were determined via costaining experiments using mCerulean3 TOMM-20, a mitochondrial-specific fusion of the cyan fluorescent protein (CFP) mCerulean3. mCerulean3 is a bright monomeric FP with an emission maximum of 475 nm. HeLa S3 cells were seeded onto Bioptechs Delta-T dishes 48 h prior to experimentation, then transfected about 24 h prior to loading the indicator using an Effectene Transfection Reagent Kit (Qiagen) and 1 μg of DNA. A 1:1 mixture of Dulbecco's modified Eagle's medium and Ham's F-12 (Invitrogen) supplemented with 12.5% fetal bovine serum was used as the culture medium. On the day of experimentation cells were rinsed twice with media and incubated with indicator 5 (1.8 μM) for 30 min. Prior to imaging cells were again rinsed twice with media, then provided with 1 mL of fresh media.
All cells were imaged using an Olympus Fluoview FV1000 confocal laser scanning microscope with an Olympus PLAPO 60× oil-immersion objective (NA=1.4). During experimentation cells were maintained at 37° C. and 5.0% CO2 using a Bioptechs Delta T4 Culture Dish Controller. Individual cells were imaged sequentially in two channels, using a 543 nm Helium-Neon laser line to excite the indicator and a 405 nm diode laser line to excite the FP. Cells were selected by the quality of FP expression, as the indicators tended to load homogenously into the cells. All data was collected using FluoView Software (Olympus). Laser power and detection settings were optimized for each image to fill LUTs. A pinhole size of 200 μm was used for each image. […]

COCCCNc1cc2c3c(c(NCCOc4ccc(/C=C/c5ccc(-c6ccc(COCCOCCOC)cn6)nc5)cc4)cc4c3c1C(=O)N(CCCOC)C4=O)C(=O)N(CCCOC)C2=O [Compound (4)]
λabs (A band) ([1]; complexes: Zn(ClO4)2 10 equiv.): 600 nm and 600 (A) nm
λabs (D band) ([1]; complexes: Zn(ClO4)2 10 equiv.): 346 nm and 346 (D) nm
λem ([1]; complexes: Zn(ClO4)2 10 equiv.): 633 nm
∈/10^3 (A band) ([1]; complexes: Zn(ClO4)2 10 equiv.): 22 10^3 M^-1 cm^-1
∈/10^3 (D band) ([1]; complexes: Zn(ClO4)2 10 equiv.): 76 10^3 M^-1 cm^-1
φf ([1]; λex = 565 nm): 0.41^c
intracellular appearance ([2]; 6.0 μM, 30 min): forms particulates intracellularly
colocalization with mitochondrial CFP (mCerulean3 TOMM-20) ([2]; 30 min incubation, (5) 1.8 μM, (4) 6.0 μM, (3) 9.0 μM, (2) 52 μM): poor colocalization with the CFP
overall intracellular fluorescence intensity ([2]; red channel λex 543 nm, λem 580-680 nm): low
